# Publication PMC2753751 (Bioorganic & medicinal chemistry letters, 2009)
# Legend:
# [1] = tested on: A549 human lung carcinoma cell line; assay: cytotoxicity with A549 cell monolayers; assay type: cell-based
# Pneumocystis carinii [2] = settings: read-out: IC50 P. carinii; P. carinii obtained from rat lungs; ref [15]; cited from earlier work
# Pneumocystis carinii [3] = assay: in vitro inhibition of Pneumocystis carinii; assay type: cell-based; settings: ratio of cytotoxic A549 IC50 to P. carinii IC50
# Pneumocystis = settings: immunosuppressed mouse, 20 mg/kg and 40 mg/kg doses; ref [1]; cited from earlier work
# [4] = tested on: Trypanosoma brucei rhodesiense KETRI 243; assay: in vitro inhibition of Trypanosoma brucei rhodesiense; assay type: cell-based; settings: T.b. rhodesiense KETRI 243 versus T.b. brucei LAB 110
Compound,cytotoxicity against the A549 cell line (in words) [1],IC50 (Pneumocystis carinii [2]) [µM],further results
N=C(N)c1ccc(NC(=O)CCCCC(=O)Nc2cccc(C(=N)N)c2)cc1 [Compound 8],very low cytoxicity,,
N=C(N)c1ccc(NC(=O)CCCCCC(=O)Nc2ccc(C(=N)N)cc2)cc1 [Compound 9],very low cytoxicity,,
N=C(N)c1ccc(NC(=O)CCCCCCC(=O)Nc2ccc(C(=N)N)cc2)cc1 [Compound 10],very low cytoxicity,,
N=C(N)c1ccc(NC(=O)CCCCCCCCC(=O)Nc2ccc(C(=N)N)cc2)cc1 [Compound 12],very low cytoxicity,,
"N=C(N)c1ccc(OCCCCCOc2ccc(C(=N)N)cc2)cc1 [Pentamidine, reference compound]",,0.5,
"N,N′-bis[4-(aminoiminomethyl)phenyl] hexanediamide [Compound 4]",,0.002,"IC50 [1]: 1190 µM; selectivity index for P. carinii (SIP.c) (Pneumocystis carinii [3]): 596,500"
"N,N′-bis[4-(aminoiminomethyl)phenyl] pentanediamide, dihydrochloride salt [Compound 2]",very low cytoxicity,0.003,"reductions in organism burden (Pneumocystis): > 1,000 fold; selectivity index for P. carinii (SIP.c) (Pneumocystis carinii [3]): 758,667; fold less active against the resistant strain [4]: about 11 fold"
